Measurements: patent US20100215579A1, “PHEN-NAPHTHALENE AND PHEN-QUINOLINE DERIVATIVES AND THEIR USE FOR BINDING AND IMAGING AMYLOID PLAQUES” (The Trustees of the University of Pennsylvania, priority 2007, published 2010)
Values belong to the molecule of their own block, whether it stands above or below them.

Columns and labels:
amyloid plaques = target: T1, amyloid plaques (Homo sapiens, UniProt P05067); assay: Ki values of Phen-Nap, Nap-Phen derivatives (Ki binding data)
T1 construct: fibrillary Aβ plaques consisting predominately of aggregates of Aβ40 and Aβ42 peptides
T1 sequence (P05067 672-713 limits assumed): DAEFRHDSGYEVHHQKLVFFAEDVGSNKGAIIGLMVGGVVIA
T1 sequence (P05067 672-711 limits assumed): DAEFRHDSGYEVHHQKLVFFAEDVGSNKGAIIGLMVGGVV

[1] = Biodistribution in ICR mice after an iv injection; format: in vivo
Excerpt: Biodistribution in ICR Mice After an iv Injection of [^18F][4-(6-{2-[2-(2-Fluoro-ethoxy)-ethoxy]-ethoxy}-naphthalen-2-yl)-phenyl]-methyl-amine in 1% EtOH/0.1% BSA in Water
(% dose/organ, avg of 3 mice±SD)
(% dose/g, avg of 3 mice±SD)
Biodistribution in ICR Mice After an iv Injection of [^18F]19a in 3% EtOH/0.1% BSA in Water
Biodistribution in ICR Mice After an iv Injection of [^18F]34a in 5% EtOH/0.1% BSA in Water
Biodistribution in ICR Mice After an iv Injection of [^18F]32a in 1% EtOH/0.1% BSA in Water

[2] = Blood, 2 min after iv injection
[3] = Blood, 30 min after iv injection
[4] = Bone, 30 min after iv injection
[5] = Brain, 2 min after iv injection
[6] = Brain, 30 min after iv injection
[7] = Heart, 2 min after iv injection
[8] = Heart, 30 min after iv injection
[9] = Kidney, 2 min after iv injection
[10] = Kidney, 30 min after iv injection
[11] = Kidney, 1 hr after iv injection
[12] = Kidney, 2 hr after iv injection
[13] = Liver, 2 min after iv injection
[14] = Liver, 30 min after iv injection
[15] = Lung, 30 min after iv injection
[16] = Muscle, 2 min after iv injection
[17] = Muscle, 30 min after iv injection
[18] = Muscle, 1 hr after iv injection
[19] = Muscle, 2 hr after iv injection
[20] = Skin, 30 min after iv injection
[21] = Spleen, 2 min after iv injection
[22] = Spleen, 30 min after iv injection
[23] = Spleen, 1 hr after iv injection
[24] = Spleen, 2 hr after iv injection

Compound: Nc1ccc(-c2ccc3cc(OCCOCCOCCF)ccc3c2)cc1 [Compound 11a, 4-(6-(2-(2-(2-fluoroethoxy)ethoxy)ethoxy)naphthalen-2-yl)benzenamine]
Ki (amyloid plaques): 12.5 ± 1.2 nM

Compound: Nc1ccc(-c2ccc3cc(OCCOCCOCCO)ccc3c2)cc1 [Compound 11b, 2-(2-(2-(6-(4-aminophenyl)naphthalen-2-yloxy)ethoxy)ethoxy)ethanol]
Ki (amyloid plaques): 22 nM

Compound: Nc1ccc2cc(-c3ccc(O)cc3)ccc2c1 [Compound 16, 4-(6-aminonaphthalen-2-yl)phenol]
Ki (amyloid plaques): 33.5 ± 11 nM

Compound: COc1ccc(-c2ccc3cc(N(C)C)ccc3c2)cc1 [Compound 23, 6-(4-methoxyphenyl)-N,N-dimethylnaphthalen-2-amine]
Ki (amyloid plaques): 1.4 nM

Compound: CN(C)c1ccc2cc(-c3ccc(O)cc3)ccc2c1 [Compound 24, 4-(6-(dimethylamino)naphthalen-2-yl)phenol]
Ki (amyloid plaques): 4.2 nM

Compound: COc1ccc(-c2ccc3cc(O)ccc3c2)cc1 [Compound 25, 6-(4-methoxyphenyl)naphthalen-2-ol]
Ki (amyloid plaques): 1.5 nM

Compound: Oc1ccc(-c2ccc3cc(OCCOCCOCCF)ccc3c2)cc1 [Compound 26, 4-(6-(2-(2-(2-fluoroethoxy)ethoxy)ethoxy)naphthalen-2-yl)phenol]
Ki (amyloid plaques): 16.5 nM

Compound: Oc1ccc2cc(-c3ccc(OCCOCCOCCF)cc3)ccc2c1 [Compound 28, 6-(4-(2-(2-(2-fluoroethoxy)ethoxy)ethoxy)phenyl)naphthalen-2-ol]
Ki (amyloid plaques): 16 nM

Compound: CNc1ccc(-c2ccc3cc(OCCOCCOCCF)ccc3c2)cc1 [[^18F][4-(6-{2-[2-(2-Fluoro-ethoxy)-ethoxy]-ethoxy}-naphthalen-2-yl)-phenyl]-methyl-amine]
% dose/g [1, 2]: 2.08 ± 0.20 % dose/g | % dose/organ [1, 2]: 3.50 ± 0.18 % dose/organ | % dose/g [1, 3]: 1.72 ± 0.29 % dose/g | % dose/organ [1, 3]: 2.99 ± 0.48 % dose/organ | % dose/g ([1]; Blood, 1 hr after iv injection): 1.41 ± 0.33 % dose/g | % dose/organ ([1]; Blood, 1 hr after iv injection): 2.73 ± 0.41 % dose/organ | % dose/g ([1]; Blood, 2 hr after iv injection): 2.22 ± 0.37 % dose/g | % dose/organ ([1]; Blood, 2 hr after iv injection): 3.59 ± 0.53 % dose/organ | % dose/g ([1]; Bone, 2 min after iv injection): 2.14 ± 0.82 % dose/g | % dose/organ ([1]; Bone, 2 min after iv injection): 7.38 ± 3.40 % dose/organ | % dose/g [1, 4]: 0.97 ± 0.03 % dose/g | % dose/organ [1, 4]: 3.36 ± 0.09 % dose/organ | % dose/g ([1]; Bone, 1 hr after iv injection): 1.19 ± 0.21 % dose/g | % dose/organ ([1]; Bone, 1 hr after iv injection): 4.61 ± 0.36 % dose/organ | % dose/g ([1]; Bone, 2 hr after iv injection): 2.18 ± 0.19 % dose/g | % dose/organ ([1]; Bone, 2 hr after iv injection): 7.07 ± 0.57 % dose/organ | % dose/g [1, 5]: 7.26 ± 1.28 % dose/g | % dose/organ [1, 5]: 3.43 ± 0.51 % dose/organ | % dose/g [1, 6]: 2.15 ± 0.25 % dose/g | % dose/organ [1, 6]: 0.95 ± 0.08 % dose/organ | % dose/g ([1]; Brain, 1 hr after iv injection): 1.58 ± 0.18 % dose/g | % dose/organ ([1]; Brain, 1 hr after iv injection): 0.75 ± 0.06 % dose/organ | % dose/g ([1]; Brain, 2 hr after iv injection): 1.91 ± 0.12 % dose/g | % dose/organ ([1]; Brain, 2 hr after iv injection): 0.88 ± 0.06 % dose/organ | % dose/g [1, 7]: 5.44 ± 0.25 % dose/g | % dose/organ [1, 7]: 0.63 ± 0.08 % dose/organ | % dose/g [1, 8]: 2.04 ± 0.30 % dose/g | % dose/organ [1, 8]: 0.23 ± 0.02 % dose/organ | % dose/g ([1]; Heart, 1 hr after iv injection): 1.46 ± 0.24 % dose/g | % dose/organ ([1]; Heart, 1 hr after iv injection): 0.18 ± 0.01 % dose/organ | % dose/g ([1]; Heart, 2 hr after iv injection): 1.79 ± 0.19 % dose/g | % dose/organ ([1]; Heart, 2 hr after iv injection): 0.19 ± 0.03 % dose/organ | % dose/g [1, 9]: 8.88 ± 1.80 % dose/g | % dose/organ [1, 9]: 3.27 ± 0.60 % dose/organ | % dose/g [1, 10]: 3.98 ± 0.64 % dose/g | % dose/organ [1, 10]: 1.45 ± 0.12 % dose/organ | % dose/g [1, 11]: 2.75 ± 0.35 % dose/g | % dose/organ [1, 11]: 1.05 ± 0.25 % dose/organ | % dose/g [1, 12]: 2.52 ± 0.18 % dose/g | % dose/organ [1, 12]: 0.88 ± 0.10 % dose/organ | % dose/g [1, 13]: 19.7 ± 3.24 % dose/g | % dose/organ [1, 13]: 26.5 ± 2.18 % dose/organ | % dose/g [1, 14]: 13.4 ± 1.30 % dose/g | % dose/organ [1, 14]: 17.1 ± 1.54 % dose/organ | % dose/g ([1]; Liver, 1 hr after iv injection): 9.46 ± 1.50 % dose/g | % dose/organ ([1]; Liver, 1 hr after iv injection): 16.3 ± 1.39 % dose/organ | % dose/g ([1]; Liver, 2 hr after iv injection): 11.9 ± 1.87 % dose/g | % dose/organ ([1]; Liver, 2 hr after iv injection): 13.5 ± 1.77 % dose/organ | % dose/g ([1]; Lung, 2 min after iv injection): 5.73 ± 0.19 % dose/g | % dose/organ ([1]; Lung, 2 min after iv injection): 1.08 ± 0.05 % dose/organ | % dose/g [1, 15]: 2.78 ± 0.30 % dose/g | % dose/organ [1, 15]: 0.53 ± 0.10 % dose/organ | % dose/g ([1]; Lung, 1 hr after iv injection): 1.99 ± 0.26 % dose/g | % dose/organ ([1]; Lung, 1 hr after iv injection): 0.41 ± 0.05 % dose/organ | % dose/g ([1]; Lung, 2 hr after iv injection): 2.44 ± 0.37 % dose/g | % dose/organ ([1]; Lung, 2 hr after iv injection): 0.48 ± 0.16 % dose/organ | % dose/g [1, 16]: 1.21 ± 0.98 % dose/g | % dose/organ [1, 16]: 11.8 ± 9.69 % dose/organ | % dose/g [1, 17]: 1.27 ± 0.06 % dose/g | % dose/organ [1, 17]: 12.7 ± 0.64 % dose/organ | % dose/g [1, 18]: 0.92 ± 0.09 % dose/g | % dose/organ [1, 18]: 10.3 ± 0.54 % dose/organ | % dose/g [1, 19]: 0.97 ± 0.06 % dose/g | % dose/organ [1, 19]: 9.00 ± 0.56 % dose/organ | % dose/g ([1]; Skin, 2 min after iv injection): 1.01 ± 0.16 % dose/g | % dose/organ ([1]; Skin, 2 min after iv injection): 3.66 ± 0.74 % dose/organ | % dose/g [1, 20]: 1.90 ± 0.08 % dose/g | % dose/organ [1, 20]: 7.08 ± 0.26 % dose/organ | % dose/g ([1]; Skin, 1 hr after iv injection): 1.56 ± 0.18 % dose/g | % dose/organ ([1]; Skin, 1 hr after iv injection): 6.53 ± 0.12 % dose/organ | % dose/g ([1]; Skin, 2 hr after iv injection): 1.32 ± 0.09 % dose/g | % dose/organ ([1]; Skin, 2 hr after iv injection): 4.60 ± 0.29 % dose/organ | % dose/g [1, 21]: 5.11 ± 0.49 % dose/g | % dose/organ [1, 21]: 0.47 ± 0.03 % dose/organ | % dose/g [1, 22]: 2.12 ± 0.33 % dose/g | % dose/organ [1, 22]: 0.23 ± 0.01 % dose/organ | % dose/g [1, 23]: 1.81 ± 0.17 % dose/g | % dose/organ [1, 23]: 0.23 ± 0.02 % dose/organ | % dose/g [1, 24]: 2.08 ± 0.44 % dose/g | % dose/organ [1, 24]: 0.19 ± 0.03 % dose/organ

Results, then the molecule that gave them:

Ki (amyloid plaques): 3.1 nM
Compound: CN(C)c1ccc(-c2ccc3cc(OCCOCCOCCF)ccc3c2)cc1 [Compound 12a, 4-(6-(2-(2-(2-fluoroethoxy)ethoxy)ethoxy)naphthalen-2-yl)-N,N-dimethylbenzenamine]

Ki (amyloid plaques): 1 nM
Compound: CNc1ccc(-c2ccc3cc(OCCOCCOCCO)ccc3c2)cc1 [Compound 13b, 2-(2-(2-(6-(4-(methylamino)phenyl)naphthalen-2-yloxy)ethoxy)ethoxy)ethanol]

Ki (amyloid plaques): 20 ± 5 nM
Compound: Nc1ccc2cc(-c3ccc(OCCOCCOCCF)cc3)ccc2c1 [Compound 17a, 6-(4-(2-(2-(2-fluoroethoxy)ethoxy)ethoxy)phenyl)naphthalen-2-amine]

Ki (amyloid plaques): 27 nM
Compound: Nc1ccc2cc(-c3ccc(OCCOCCOCCO)cc3)ccc2c1 [Compound 17b, 2-(2-(2-(4-(6-aminonaphthalen-2-yl)phenoxy)ethoxy)ethoxy)ethanol]

Ki (amyloid plaques): 5.6 nM
Compound: CN(C)c1ccc2cc(-c3ccc(OCCOCCOCCF)cc3)ccc2c1 [Compound 18a, 6-(4-(2-(2-(2-fluoroethoxy)ethoxy)ethoxy)phenyl)-N,N-dimethylnaphthalen-2-amine]

Ki (amyloid plaques): 6.5 nM
Compound: CN(C)c1ccc2cc(-c3ccc(OCCOCCOCCO)cc3)ccc2c1 [Compound 18b, 2-(2-(2-(4-(6-(dimethylamino)naphthalen-2-yl)phenoxy)ethoxy)ethoxy)ethanol]

Ki (amyloid plaques): 3 nM
Compound: CNc1ccc2cc(-c3ccc(OCCOCCOCCF)cc3)ccc2c1 [Compound 19a, 6-(4-(2-(2-(2-fluoroethoxy)ethoxy)ethoxy)phenyl)-N-methylnaphthalen-2-amine]

Ki (amyloid plaques): 6 nM
Compound: CNc1ccc2cc(-c3ccc(OCCOCCOCCO)cc3)ccc2c1 [Compound 19b, 2-(2-(2-(4-(6-(methylamino)naphthalen-2-yl)phenoxy)ethoxy)ethoxy)ethanol]

Ki (amyloid plaques): 4.4 nM
Compound: CN(C)c1ccc(-c2ccc3nc(OCCOCCOCCF)ccc3c2)cc1 [Compound 32a, 4-(2-(2-(2-(2-fluoroethoxy)ethoxy)ethoxy)quinolin-6-yl)-N,N-dimethylbenzenamine]
